Source: patent publication US10941157B2, “Pesticidal compositions and uses thereof” (Gilead Apollo, LLC, priority 2015, dated 2021)
≈ marks a conversion by molar mass, not a printed value. Where two headings read alike, the source gives them in different places.

Key:
Rhizoctonia solani (Rs) = experiment: In vitro pathogen growth inhibition assay, Rs (mycelial plugs); assay type: cell-based; settings: Rhizoctonia solani, 48 h, mycelial plugs
Procedure, shortened: (§1)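 Value reported is the compound concentration reaching ≥90% growth inhibition, from OD readings at 24 and 48 h after blank subtraction, confirmed visually. Inoculum was spores diluted in 17% V8 medium, except Rs, using 1.5 mm mycelial plugs in ¼ PDB; actual compound concentration corrected via OD600.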

[1] = system: Fusarium moniliforme (Fm); experiment: In vitro pathogen growth inhibition assay, Fm; assay type: cell-based; settings: Fusarium verticillioides
Procedure, shortened: (§2)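 Spores in 17% V8 liquid medium, or 1.5 mm Rs mycelial plugs in ¼ PDB, incubated with compound; final concentration checked by OD600 for precipitation. OD readings at 24 and 48 h, blank-subtracted, plus visual ratings; value is concentration giving ≥90% growth inhibition.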

[2] = system: Fusarium virguliforme (Fv); experiment: In vitro pathogen growth inhibition assay, Fv; assay type: cell-based
Procedure, shortened: as §1

Puccinia triticina = experiment: Foliar protection test for wheat leaf rust control; assay type: in vivo; settings: foliar application to wheat (Triticum aestivum cv. Winterhawk), evaluated 10 days later
Botrtyis cinerea (Bc) = experiment: In vitro pathogen growth inhibition assay, Bc; assay type: cell-based; settings: 48 h
Procedure, shortened: as §2

[3] = system: Phytophthora capsici (Pc); experiment: In vitro pathogen growth inhibition assay, Pc; assay type: cell-based; settings: 48 h
Procedure, shortened: as §1

Phakopsora pachyrhizi = experiment: Foliar protection test for Asian soybean rust control; assay type: in vivo; settings: foliar application to soybean (Glycine max AG4832), percent disease area evaluated 14 days later
Sphaerotheca fuliginea = experiment: Foliar protection for cucumber powdery mildew control; assay type: in vivo; settings: foliar spray on Cucumis sativus cv. Straight Eight, inoculated 24 hours after treatment, evaluated 7 days later
Procedure, shortened: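 Cucumber plants (cv. Straight Eight, 10 days old) sprayed to wetness on both leaf surfaces, then inoculated 24 h later by shaking sporulating stock plants over them. Held at 23–27 °C, 16 h light, 60% RH. Mildew colonization scored 7 days after inoculation, at compound concentrations of 10 ppm or lower.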

[4] = system: Mycosphaerella graminicola (synthetic Septoria tritici); experiment: Foliar protection test for wheat septoria leaf blotch control; assay type: in vivo; settings: foliar spray on Triticum aestivum cv. WinterHawk, inoculated 1 hour after treatment, evaluated 16 days later
Fusarium graminearum = assay type: in vivo; settings: spray on flowering Triticum aestivum cv. Samson, inoculated 24 hours after treatment, evaluated 14 days later
[5] = system: Blumeria graminis f. sp. hordei; experiment: Foliar protection test for barley powdery mildew control; assay type: in vivo; settings: foliar spray on Hordeum vulgare cv. Perry, inoculated 24 hours after treatment, evaluated 7 days later
Procedure, shortened: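 Six-day-old barley (cv. Perry) sprayed to wetness on both leaf sides; 24 h later inoculated by shaking spores from infected stock plants. Kept at 20 to 22° C, 70% relative humidity; mildew colonization assessed 7 days later.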

[6] = system: Collectotrichum graminicola (Cg); experiment: In vitro pathogen growth inhibition assay, Cg; assay type: cell-based; settings: 48 h
Procedure, shortened: as §2

Septoria tritici (St) = experiment: In vitro pathogen growth inhibition assay, St; assay type: cell-based; settings: Zymoseptoria tritici, 48 h
Procedure, shortened: as §2

Diplodia maydis (Dm) = experiment: In vitro pathogen growth inhibition assay, Dm; assay type: cell-based; settings: Stenocarpella maydis, 48 h
Procedure, shortened: as §1

[7] = ≥90% growth inhibition, 48 hours, vs 2% DMSO control, read-out: Compound Concentration (ppm) sufficient for ≥90% inhibition of Rs
[8] = ≥90% growth inhibition, 48 hours, vs 2% DMSO control, read-out: Compound Concentration (ppm) sufficient for ≥90% inhibition of Fm
[9] = ≥90% growth inhibition, 48 hours, vs 2% DMSO control, read-out: Compound Concentration (ppm) sufficient for ≥90% inhibition of Fv
[10] = ≥90% growth inhibition, 48 hours, vs 2% DMSO control, read-out: Compound Concentration (ppm) sufficient for ≥90% inhibition of Bc
[11] = ≥90% growth inhibition, 48 hours, vs 2% DMSO control, read-out: Compound Concentration (ppm) sufficient for ≥90% inhibition of Pc
[12] = ≥90% growth inhibition, 48 hours, vs 2% DMSO control, read-out: Compound Concentration (ppm) sufficient for ≥90% inhibition of Cg
[13] = ≥90% growth inhibition, 48 hours, vs 2% DMSO control, read-out: Compound Concentration (ppm) sufficient for ≥90% inhibition of St
[14] = ≥90% growth inhibition, 48 hours, vs 2% DMSO control, read-out: Compound Concentration (ppm) sufficient for ≥90% inhibition of Dm
[15] = ≥90% inhibition, 48 hours vs 2% DMSO control, read-out: Compound Concentration (ppm) sufficient for ≥90% inhibition of growth, Rs
[16] = ≥90% inhibition, 48 hours vs 2% DMSO control, read-out: Compound Concentration (ppm) sufficient for ≥90% inhibition of growth, Fm
[17] = ≥90% inhibition, 48 hours vs 2% DMSO control, read-out: Compound Concentration (ppm) sufficient for ≥90% inhibition of growth, Fv
[18] = ≥90% inhibition, 48 hours vs 2% DMSO control, read-out: Compound Concentration (ppm) sufficient for ≥90% inhibition of growth, Bc
[19] = ≥90% inhibition, 48 hours vs 2% DMSO control, read-out: Compound Concentration (ppm) sufficient for ≥90% inhibition of growth, Pc
[20] = ≥90% inhibition, 48 hours vs 2% DMSO control, read-out: Compound Concentration (ppm) sufficient for ≥90% inhibition of growth, Cg
[21] = ≥90% inhibition, 48 hours vs 2% DMSO control, read-out: Compound Concentration (ppm) sufficient for ≥90% inhibition of growth, St
[22] = ≥90% inhibition, 48 hours vs 2% DMSO control, read-out: Compound Concentration (ppm) sufficient for ≥90% inhibition of growth, Dm

## CCNC(=O)[C@@H](C)n1c(=O)c2c(C)c(-n3nccn3)sc2n(C[C@H](OCCC#N)c2cc(F)ccc2OC)c1=O [Compound I-289, (R)-2-(1-((R)-2-(2-cyanoethoxy)-2-(5-fluoro-2-methoxyphenyl)ethyl)-5-methyl-2,4-dioxo-6-(2H-1,2,3-triazol-2-yl)-1,4-dihydrothieno[2,3-d]pyrimidin-3 (2H)-yl)-N-ethylpropanamide]
Rhizoctonia solani (Rs); [7]
  IC90: 0.08 µg/mL (≈ 0.14 µM)
[1]; [8]
  IC90: 0.08 µg/mL (≈ 0.14 µM)
[2]; [9]
  IC90: 0.4 µg/mL (≈ 0.702 µM)
Puccinia triticina
  Wheat Leaf Rust Control at a compound concentration of 10 ppm or lower: AA (≥85% control of wheat leaf rust)
Botrtyis cinerea (Bc); [10]
  IC90: 2 µg/mL (≈ 3.51 µM)
[3]; [11]
  IC90: ≥ 10 µg/mL
Phakopsora pachyrhizi
  Asian Soybean Rust Control at a compound concentration of 25 ppm or lower: AA (≥85% control of Asian soybean rust)
Sphaerotheca fuliginea
  Cucumber Powdery Mildew Control at a compound concentration of 10 ppm or lower: AA (≥85% control of cucumber powdery mildew)
[4]
  Septoria Leaf Blotch Control at a compound concentration of 25 ppm or lower: AA (≥85% control of wheat septoria leaf blotch)
Fusarium graminearum
  Wheat Fusarium Head Blight Control at a compound concentration of 25 ppm or lower: C (from 25 to 49% control of wheat fusarium head blight)
[5]
  Barley Powdery Mildew Control at a compound concentration of 10 ppm or lower: AA (≥85% control of barley powdery mildew)
[6]; [12]
  IC90: 0.08 µg/mL (≈ 0.14 µM)
Septoria tritici (St); [13]
  IC90: > 50 µg/mL
Diplodia maydis (Dm); [14]
  IC90: 0.4 µg/mL (≈ 0.702 µM)

## COc1ccc(F)cc1[C@H](Cn1c(=O)n([C@H](C)C(=O)N(C)C(C)C)c(=O)c2c(C)c(-n3nccn3)sc21)OCCO [Compound I-090, (R)-2-(1-((R)-2-(5-fluoro-2-methoxyphenyl)-2-(2-hydroxyethoxy)ethyl)-5-methyl-2,4-dioxo-6-(2H-1,2,3-triazol-2-yl)-1,4-dihydrothieno[2,3-d]pyrimidin-3 (2H)-yl)-N-isopropyl-N-methylpropanamide]
Rhizoctonia solani (Rs); [15]
  IC90: 0.08 µg/mL (≈ 0.136 µM)
[1]; [16]
  IC90: 0.08 µg/mL (≈ 0.136 µM)
[2]; [17]
  IC90: > 0.4 µg/mL
Puccinia triticina
  Wheat Leaf Rust Control at a compound concentration of 10 ppm or lower: AA (≥85% control of wheat leaf rust)
Botrtyis cinerea (Bc); [18]
  IC90: 2 µg/mL (≈ 3.4 µM)
[3]; [19]
  IC90: 2 µg/mL (≈ 3.4 µM)
Phakopsora pachyrhizi
  Asian Soybean Rust Control at a compound concentration of 25 ppm or lower: B (from 50 to 69% control of Asian soybean rust)
Sphaerotheca fuliginea
  Cucumber Powdery Mildew Control at a compound concentration of 10 ppm or lower: A (from 70% to 84% control of cucumber powdery mildew)
[4]
  Septoria Leaf Blotch Control at a compound concentration of 25 ppm or lower: A (from 70% to 84% control of wheat septoria leaf blotch)
Fusarium graminearum
  Wheat Fusarium Head Blight Control at a compound concentration of 25 ppm or lower: D (<25% control of wheat fusarium head blight)
[5]
  Barley Powdery Mildew Control at a compound concentration of 10 ppm or lower: A (from 70% to 84% control of barley powdery mildew)
[6]; [20]
  IC90: 0.08 µg/mL (≈ 0.136 µM)
Septoria tritici (St); [21]
  IC90: ≥ 2 µg/mL
Diplodia maydis (Dm); [22]
  IC90: > 0.08 µg/mL

## COc1ccc(F)cc1[C@H](Cn1c(=O)n([C@H](C)C(=O)NC(C)C)c(=O)c2c(C)c(-n3nccn3)sc21)OCCC#N [Compound I-198, (R)-2-(1-((R)-2-(2-cyanoethoxy)-2-(5-fluoro-2-methoxyphenyl)ethyl)-5-methyl-2,4-dioxo-6-(2H-1,2,3-triazol-2-yl)-1,4-dihydrothieno[2,3-d]pyrimidin-3 (2H)-yl)-N-isopropylpropanamide]
Rhizoctonia solani (Rs); [7]
  IC90: 0.08 µg/mL (≈ 0.137 µM)
[1]; [8]
  IC90: 0.08 µg/mL (≈ 0.137 µM)
[2]; [9]
  IC90: 0.4 µg/mL (≈ 0.685 µM)
Puccinia triticina
  Wheat Leaf Rust Control at a compound concentration of 10 ppm or lower: AA (≥85% control of wheat leaf rust)
Botrtyis cinerea (Bc); [10]
  IC90: 0.4 µg/mL (≈ 0.685 µM)
[3]; [11]
  IC90: 2 µg/mL (≈ 3.43 µM)
Phakopsora pachyrhizi
  Asian Soybean Rust Control at a compound concentration of 25 ppm or lower: AA (≥85% control of Asian soybean rust)
Sphaerotheca fuliginea
  Cucumber Powdery Mildew Control at a compound concentration of 10 ppm or lower: AA (≥85% control of cucumber powdery mildew)
[4]
  Septoria Leaf Blotch Control at a compound concentration of 25 ppm or lower: AA (≥85% control of wheat septoria leaf blotch)
Fusarium graminearum
  Wheat Fusarium Head Blight Control at a compound concentration of 25 ppm or lower: C (from 25 to 49% control of wheat fusarium head blight)
[5]
  Barley Powdery Mildew Control at a compound concentration of 10 ppm or lower: AA (≥85% control of barley powdery mildew)
[6]; [12]
  IC90: 0.08 µg/mL (≈ 0.137 µM)
Septoria tritici (St); [13]
  IC90: ≥ 2 µg/mL
Diplodia maydis (Dm); [14]
  IC90: 0.08 µg/mL (≈ 0.137 µM)

## CCNC(=O)C(C)(C)n1c(=O)c2c(C)c(C(=O)OCC)sc2n(C[C@H](OCCC#N)c2ccccc2OC)c1=O [Compound I-234, (R)-ethyl-1-(2-(2-cyanoethoxy)-2-(2-methoxyphenyl)ethyl)-3-(1-(ethylamino)-2-methyl-1-oxopropan-2-yl)-5-methyl-2,4-dioxo-1,2,3,4-tetrahydrothieno[2,3-d]pyrimidine-6-carboxylate]
Rhizoctonia solani (Rs); [7]
  IC90: 2 µg/mL (≈ 3.5 µM)
[1]; [8]
  IC90: 0.08 µg/mL (≈ 0.14 µM)
[2]; [9]
  IC90: 2 µg/mL (≈ 3.5 µM)
Puccinia triticina
  Wheat Leaf Rust Control at a compound concentration of 10 ppm or lower: AA (≥85% control of wheat leaf rust)
Botrtyis cinerea (Bc); [10]
  IC90: 2 µg/mL (≈ 3.5 µM)
[3]; [11]
  IC90: > 50 µg/mL
Phakopsora pachyrhizi
  Asian Soybean Rust Control at a compound concentration of 25 ppm or lower: A (from 70% to 84% control of Asian soybean rust)
Sphaerotheca fuliginea
  Cucumber Powdery Mildew Control at a compound concentration of 10 ppm or lower: AA (≥85% control of cucumber powdery mildew)
[4]
  Septoria Leaf Blotch Control at a compound concentration of 25 ppm or lower: C (from 25 to 49% control of wheat septoria leaf blotch)
Fusarium graminearum
  Wheat Fusarium Head Blight Control at a compound concentration of 25 ppm or lower: C (from 25 to 49% control of wheat fusarium head blight)
[5]
  Barley Powdery Mildew Control at a compound concentration of 10 ppm or lower: AA (≥85% control of barley powdery mildew)
[6]; [12]
  IC90: 2 µg/mL (≈ 3.5 µM)
Septoria tritici (St); [13]
  IC90: > 10 µg/mL
Diplodia maydis (Dm); [14]
  IC90: 2 µg/mL (≈ 3.5 µM)

## COc1ccccc1[C@H](Cn1c(=O)n(C(C)(C)C(=O)N2CCCC2)c(=O)c2c(C)c(-n3nccn3)sc21)OC1CCOCC1 [Compound I-034, (R)-1-(2-(2-methoxyphenyl)-2-((tetrahydro-2H-pyran-4-yl)oxy)ethyl)-5-methyl-3-(2-methyl-1-oxo-1-(pyrrolidin-1-yl)propan-2-yl)-6-(2H-1,2,3-triazol-2-yl)thieno[2,3-d]pyrimidine-2,4(1H,3H)-dione]
Rhizoctonia solani (Rs); [15]
  IC90: 0.08 µg/mL (≈ 0.128 µM)
[1]; [16]
  IC90: 0.08 µg/mL (≈ 0.128 µM)
[2]; [17]
  IC90: 0.4 µg/mL (≈ 0.642 µM)
Puccinia triticina
  Wheat Leaf Rust Control at a compound concentration of 10 ppm or lower: AA (≥85% control of wheat leaf rust)
Botrtyis cinerea (Bc); [18]
  IC90: 0.4 µg/mL (≈ 0.642 µM)
[3]; [19]
  IC90: ≥ 10 µg/mL
Phakopsora pachyrhizi
  Asian Soybean Rust Control at a compound concentration of 25 ppm or lower: AA (≥85% control of Asian soybean rust)
Sphaerotheca fuliginea
  Cucumber Powdery Mildew Control at a compound concentration of 10 ppm or lower: AA (≥85% control of cucumber powdery mildew)
[4]
  Septoria Leaf Blotch Control at a compound concentration of 25 ppm or lower: B (from 50 to 69% control of wheat septoria leaf blotch)
Fusarium graminearum
  Wheat Fusarium Head Blight Control at a compound concentration of 25 ppm or lower: C (from 25 to 49% control of wheat fusarium head blight)
[5]
  Barley Powdery Mildew Control at a compound concentration of 10 ppm or lower: AA (≥85% control of barley powdery mildew)
[6]; [20]
  IC90: ≥ 0.4 µg/mL
Septoria tritici (St); [21]
  IC90: ≥ 2 µg/mL
Diplodia maydis (Dm); [22]
  IC90: ≥ 0.4 µg/mL
